According to US9314025B2, “Mixtures of mesoionic pesticides” (E I DU PONT DE NEMOURS AND COMPANY, priority 2009, dated 2016):
Several values for one entry are separate records, joined by “and”; a condition that tells them apart may be missing. Equal entries are not always repeated.

Tests used:
Type in all cases: in vivo
[1] = tested on: green peach aphid (Myzus persicae); conditions: for Percent Mortality, Observed, Cmpd A: in vivo
Source text: (§1) The presence of a synergistic effect between two active ingredients can be established with the aid of the Colby equation (see Colby, S. R., “Calculating Synergistic and Antagonistic Responses of Herbicide Combinations”, Weeds 1967, 15, 20-22):
(§2) Using the method of Colby, the presence of a synergistic interaction between two active ingredients is established by first calculating the predicted activity, p, of the mixture based on activities of the two components applied alone. In the equation above, A is the biological activity in percentage control of one component applied alone at rate x. The B term is the biological activity in percentage control of the second component applied at rate y. The equation calculates p, the predicted biological activity of the mixture of A at rate x with B at rate y if their effects are strictly additive and no interaction has occurred. If the experimentally established effect of the mixture is greater than the predicted activity, p, synergism is present. To use the Colby equation the active ingredients of the mixture are applied in a test separately as well as in combination.
(§3) Test compounds and compositions were formulated using a solution containing 10% acetone, 90% water and 300 ppm X-77® Spreader Lo-Foam Formula non-ionic surfactant containing alkylarylpolyoxyethylene, free fatty acids, glycols and isopropanol (Loveland Industries, Inc. Greeley, Colo., USA). The formulated compounds or compositions were applied in 1 mL of liquid through a SUJ2 atomizer nozzle with 1/8 JJ custom body (Spraying Systems Co. Wheaton, Ill., USA) positioned 1.27 cm (0.5 inches) above the top of each test unit. Tests were replicated three times. After spraying of the formulated test compound or compositions, each test unit was allowed to dry for 1 h and then a black, screened cap was placed on top. The test units were held for 6 days in a growth chamber at 25° C. and 70% relative humidity. Plant feeding damage was then visually assessed based on foliage consumed.
For evaluating control of green peach aphid (Myzus persicae) through contact and/or systemic means, the test unit consisted of a small open container with a 12-15-day-old radish plant inside. This was pre-infested by placing on a leaf of the test plant 30-40 aphids on a piece of leaf excised from a culture plant (cut-leaf method). The aphids moved onto the test plant as the leaf piece desiccated. After pre-infestation, the soil of the test unit was covered with a layer of sand.
Test compounds and compositions were formulated and sprayed as described for Test A. The applications were replicated three times. After spraying of the formulated test compound or composition, each test unit was allowed to dry for 1 h and then a black, screened cap was placed on top. The test units were held for 6 days in a growth chamber at 19-21° C. and 50-70% relative humidity. Each test unit was then visually assessed for insect mortality.
The results calculated as mean averages of results from the three replicates are listed in Table B. Compound 123 was applied at a rate of 50 ppm. Compound 8 was applied at a rate of 250 ppm.

[2] = tested on: corn planthopper (Peregrinus maidis); conditions: for Percent Mortality, Observed, Cmpd A: in vivo
Source text: as §1, §2, §3
For evaluating control of corn planthopper (Peregrinus maidis) through contact and/or systemic means, the test unit consisted of a small open container with a 3-4-day-old maize plant (spike) inside. White sand was added to the top of the soil prior to application. Test compounds and compositions were formulated, sprayed, and replicated three times as described for Test A. After spraying, the test units were allowed to dry for 1 h before they were post-infested with ˜15-20 nymphs (18 to 21 day old) by sprinkling them onto the sand with a salt shaker. A black, screened cap was placed on the top of the cylinder. The test units were held for 6 days in a growth chamber at 22-24° C. and 50-70% relative humidity. Each test unit was then visually assessed for insect mortality.
Compound 123 was applied at a rate of 2.5 ppm. Compound 8 was applied at a rate of 0.2 ppm.

[3] = tested on: diamondback moth (Plutella xylostella); experiment: Test A: control of diamondback moth on radish plant, foliar spray, plant feeding damage assessed visually; conditions: for Plant Protection, Observed, Cmpd A: in vivo
Source text: as §1, §2
For evaluating control of diamondback moth (Plutella xylostella) the test unit consisted of a small open container with a 12-14-day-old radish plant inside. This was pre-infested with ˜50 neonate larvae that were dispensed into the test unit via corn cob grits using a bazooka inoculator. The larvae moved onto the test plant after being dispensed into the test unit.
as §3
Compound 8 was applied at a rate of 20 ppm.

[4] = tested on: Western Flower Thrip (Frankliniellla occidentalis); experiment: Test D: control of Western Flower Thrip on Soleil bean plant through contact and/or systemic means, plant protection; conditions: for Plant Protection, Observed, Cmpd A: in vivo
Source text: as §1, §2, §3
For evaluating control of the Western Flower Thrip (Frankliniellla occidentalis) through contact and/or systemic means, the test unit consisted of a small open container with a 5-7-day-old Soleil bean plant inside.
Test compounds and compositions were formulated, sprayed, and replicated three times as described for Test A. After spraying, the test units were allowed to dry for 1 hour and then 22-27 adult thrips were added to the unit and then a black, screened cap was placed on top. The test units were held for 7 days at 25° C. and 45-55% relative humidity.
Compound 8 was applied at a rate of 250 ppm.

Compound	Percent Mortality, Observed, Cmpd A [1]	Percent Mortality, Observed, Cmpd A [2]	also measured
CNC(=O)c1cc(C#N)cc(C)c1NC(=O)c1cc(Br)nn1-c1ncccc1Cl [cyantraniliprole]	10%	67%	–
N#C/N=C1\SCCN1Cc1ccc(Cl)nc1 [thiacloprid]	12%	60%	–
FC(F)(F)c1ccc(OCCCOc2c(Cl)cc(OCC=C(Cl)Cl)cc2Cl)nc1 [pyridalyl]	13%	62%	–
CNC(=O)c1cc(Cl)cc(C)c1NC(=O)c1cc(Br)nn1-c1ncccc1Cl [chlorantraniliprole]	11%	33%	–
N#Cc1nn(-c2c(Cl)cc(C(F)(F)F)cc2Cl)c(N)c1[S+]([O-])C(F)(F)F (centres unmarked) [fipronil]	87%	21%	–
CCOCn1c(-c2ccc(Cl)cc2)c(C#N)c(Br)c1C(F)(F)F [chlorfenapyr]	54%	81%	–
CN(C)C(CSC(N)=O)CSC(N)=O [cartap]	15%	40%	–
N#CCNC(=O)c1cnccc1C(F)(F)F [flonicamid]	14%	70%	Plant Protection, Observed, Cmpd A [3]: 10; Plant Protection, Observed, Cmpd A [4]: 60
O=c1c(-c2cc(OC(F)(F)F)cc(-c3ccc(F)nc3)c2)c([O-])[n+](Cc2cnc(Cl)s2)c2ccccn12 [Compound 123]	–	–	Plant Protection, Observed, Cmpd 123 ([3]; Cmpd 123 alone at 0.1 ppm, foliar spray, 6 days, (0 to 10 rating) × 10, mean of 3 replicates): 33 (5×) and 17 (11×) and 97 (6×) and 80 (6×); Percent Mortality, Observed, Cmpd 123 ([1]; Cmpd 123 alone at 50 ppm, spray, 6 days, mean of 3 replicates): 15% and 18% and 22% and 9% and 66%; Percent Mortality, Observed, Cmpd 123 ([2]; Cmpd 123 alone at 2.5 ppm, spray, 6 days, mean of 3 replicates): 28% and 21% and 8% and 42% and 68%; Plant Protection, Observed, Cmpd 123 ([4]; Cmpd 123 alone at 25 ppm, spray, 7 days, (0 to 10 rating) × 10, mean of 3 replicates): 23 (5×) and 30 (5×) and 33 (6×) and 3 (6×) and 40 (6×)
CS/C(C)=N\OC(=O)N(C)SN(C)C(=O)O/N=C(\C)SC [thiodicarb]	25%	64%	–
CNC(=O)O/N=C(\SC)C(=O)N(C)C [oxamyl]	23%	32%	–
Cc1cc(C(F)(C(F)(F)F)C(F)(F)F)ccc1NC(=O)c1cccc(I)c1C(=O)NC(C)(C)CS(C)(=O)=O [flubendiamide]	5%	42%	–
spinetoram	10%	58%	Plant Protection, Observed, Cmpd A [3]: 40; Plant Protection, Observed, Cmpd A [4]: 27
CN/C(=N/CC1CCOC1)N[N+](=O)[O-] (centres unmarked) [dinotefuran]	33%	42%	–
CCOC(=O)OC1=C(c2cc(C)ccc2C)C(=O)N[C@]12CC[C@@H](OC)CC2 [spirotetramat]	8%	65%	–
CNC(=O)ON=C(C)SC [methomyl]	28%	80%	–
C/C(=N\C#N)N(C)Cc1ccc(Cl)nc1 [acetamiprid]	9%	32%	–
CCOP(=S)(OCC)Oc1nc(Cl)c(Cl)cc1Cl [chlorpyrifos]	18%	48%	–
COc1ccc(C(F)(F)F)cc1-c1c([O-])[n+](Cc2ccc(F)nc2)c2ccccn2c1=O [Compound 8]	–	–	Plant Protection, Observed, Cmpd 8 ([3]; Cmpd 8 alone at 20 ppm, foliar spray, 6 days, (0 to 10 rating) × 10, mean of 3 replicates): 13 (5×) and 0 (11×) and 40 (6×) and 17 (6×); Percent Mortality, Observed, Cmpd 8 ([1]; Cmpd 8 alone at 250 ppm, spray, 6 days, mean of 3 replicates): 25% and 13% and 10% and 15%; Percent Mortality, Observed, Cmpd 8 ([2]; Cmpd 8 alone at 0.2 ppm, spray, 6 days, mean of 3 replicates): 38% and 71% and 8% and 55% and 76%; Plant Protection, Observed, Cmpd 8 ([4]; Cmpd 8 alone at 250 ppm, spray, 7 days, (0 to 10 rating) × 10, mean of 3 replicates): 53 (5×) and 37 (5×) and 50 (6×) and 10 (6×) and 30 (6×)
CCc1nn(C)c(C(=O)NCc2ccc(Oc3ccc(C)cc3)cc2)c1Cl [tolfenpyrad]	77%	98%	–
CC(COc1ccc(Oc2ccccc2)cc1)Oc1ccccn1 (centres unmarked) [pyriproxifen]	10%	20%	Plant Protection, Observed, Cmpd A [3]: 0; Plant Protection, Observed, Cmpd A [4]: 7
CC1=NNC(=O)N(/N=C/c2cccnc2)C1 [pymetrozine]	28%	76%	–
CN1COCN(Cc2cnc(Cl)s2)/C1=N\[N+](=O)[O-] [thiamethoxam]	40%	29%	–
CC(C)N1C(=O)N(c2ccccc2)CS/C1=N\C(C)(C)C [buprofezin]	14%	44%	–
COc1cccc(C(=O)NN(C(=O)c2cc(C)cc(C)c2)C(C)(C)C)c1C [methoxyfenozide]	16%	33%	–
abamectin	91%	90%	Plant Protection, Observed, Cmpd A [3]: 50; Plant Protection, Observed, Cmpd A [4]: 20
CN/C(=N\[N+](=O)[O-])NCc1cnc(Cl)s1 [clothianidin]	16%	35%	–
COC(=O)N(C(=O)N1CO[C@@]2(C(=O)OC)Cc3cc(Cl)ccc3C2=N1)c1ccc(OC(F)(F)F)cc1 [indoxacarb]	32%	21%	Plant Protection, Observed, Cmpd A [3]: 40; Plant Protection, Observed, Cmpd A [4]: 23
CC1(C)[C@H](C(=O)O[C@H](C#N)c2cccc(Oc3ccccc3)c2)[C@@H]1/C=C(\Cl)C(F)(F)F (racemic) [lambda-cyhalothrin]	39%	45%	–
O=C(NC(=O)c1c(F)cccc1F)Nc1ccc(OC(F)(F)C(F)OC(F)(F)F)c(Cl)c1 (centres unmarked) [novaluron]	7%	51%	–
